Patent EP0186440A2, “Method for producing benzoic acid derivatives” (Takeda Chemical Industries, Ltd., priority 1984, dated 1986)
Like-named read-outs stand apart in the source and are kept apart here.

Columns and labels:
[1] = parameters: species or system male mice of Jcl:ICR strain; settings: mouse, in vivo, po
Method: Five 5-week-old male mice of Jcl:ICR strain, weighing about 30 g each, were used. Compound A, C or E was suspended in a 5% solution of gum arabic and administered orally at the level of 0.2 ml per 10 grams body weight.

[2] = system: synthetic leukotriene D4 (LTD4); experiment: Bronchoconstriction in guinea pigs due to intravenous LTD4 (Konzett-Rössler method), compound given orally one hour before; assay type: in vivo, Guinea pigs of the Hartley strain; settings: Cavia porcellus, 1 h; 50% inhibitory dose; oral, one hour before LTD4 (10 µg/kg i.v.); inhibition of overflowing volume at maximal response, 30 seconds after LTD4; read-out: ID50(p.o.)
Method: Guinea pigs of the Hartley strain, both male and female, with body weights of about 400 g were assigned to groups of 6-10 individuals, and the bronchoconstriction due to LTD4 was measured according to the method of Konzett-Rossler, [Konzett, H. and Rössler, R.: Naunyn-Schmidebergs Archiv für Experimentelle Pathologie und Pharmakologie, 195, 71-74 (1940).] Each guinea pig was fixed in a supine position under urethane anesthesis (1.5 g/kg, intraperitoneal) and the trachea was incised and connected to an artificial respiration apparatus, Rodent Respirator Model 680 [Harvard Apparatus Company, U.S.A.] via a cannula. The branch tube of this tracheal cannula was connected to a Bronchospasm Transducer Model 7020 [Ugobasil Biological Research Apparatus, Italy]. Under the conditions of 4 to 7 ml of air per stroke, 70 strokes per minute and a lung loading pressure of 10 cmH20, the volume of overflowing air was recorded on Rectigraph-8S (San-eiSokki Ltd., Japan) via a transducer. After administration of gallamine triethiodide (1'mg/kg, i.v.), a solution of LTD4 in physiological saline (10 µg/kg) was intravenously administered and the bronchoconstriction elicited thereby was recorded for 15 minutes. The compound was used as suspended in a 5% solution of gum arabic or dissolved in water, and administered orally in a volume of 0.2 ml per 100 c body weight one hour before LTD4 loading. […]

Compound	Autopsy after 7 days ([1]; 2000 mg/kg)	symptoms attributable to the compound (acute toxicity) ([1]; 2000 mg/kg)	ED50 [2] [µmol/kg]	Autopsy after 7 days ([1]; 500 mg/kg)	symptoms attributable to the compound (acute toxicity) ([1]; 500 mg/kg)
CCCc1c(OCCCOc2ccc(C(=O)OCCN3CCOCC3)cc2Br)ccc(C(C)=O)c1O [C, 2-morpholinoethyl 4-[3-(4-acetyl-3-hydroxy-2-propylphenoxy)propoxy]-3-bromobenzoate]	did not reveal any abnormalities	no symptoms			
CCCc1c(OCCCOc2ccc(C(=O)O)cc2Br)ccc(C(C)=O)c1OC(C)=O [Compound A, 4-[3-(3-acetoxy-4-acetyl-2-propylphenoxy)propoxy]-3-bromobenzoic acid]			47	did not reveal any abnormalities	no symptoms
CCCc1c(OCCCOc2ccc(C(=O)OCCCN(C)C)cc2Br)ccc(C(C)=O)c1O [E, 3-dimethylaminopropyl 4-[3-(4-acetyl-3-hydroxy-2-propylphenoxy)propoxy]-3-bromobenzoate]	did not reveal any abnormalities	no symptoms			
